Measurements as given in patent US20250296959A1, “B7-H3 TARGETING PEPTIDES AND CONSTRUCTS THEREOF” (Mariana Oncology Inc., priority 2024, published 2025).
Starred links: 1 amine or outer side, 2 acyl side, 3 side chain; linkers in the order of their positions; H or OH if unused. Positions of bridges follow the written chain, without caps; N, C: chain ends. Non-standard residues stand in square brackets, D forms with d. Residues, ends and D or L forms follow the SMILES beside them. *: point of attachment. DOTA = O=C(O)CN1CCN(CC(=O)O)CCN(CC(=O)*)CCN(CC(=O)O)CC1; Phe(4-COOH) = N[C@@H](Cc1ccc(C(=O)O)cc1)C(=O)O; γGlu = O=C(O)[C@H](CCC(=O)[*:2])N[*:1]; N(CH2CH2COOH)Gly = O=C(O)CCNCC(=O)O; Chg = N[C@H](C(=O)O)C1CCCCC1; Nle = CCCC[C@H](N)C(=O)O; NEtG = CCNCC(=O)O; Sar = CNCC(=O)O

Target: T1, human 4lg B7-H3 (Homo sapiens, UniProt Q5ZPR3)
T1 sequence (Q5ZPR3 29-534): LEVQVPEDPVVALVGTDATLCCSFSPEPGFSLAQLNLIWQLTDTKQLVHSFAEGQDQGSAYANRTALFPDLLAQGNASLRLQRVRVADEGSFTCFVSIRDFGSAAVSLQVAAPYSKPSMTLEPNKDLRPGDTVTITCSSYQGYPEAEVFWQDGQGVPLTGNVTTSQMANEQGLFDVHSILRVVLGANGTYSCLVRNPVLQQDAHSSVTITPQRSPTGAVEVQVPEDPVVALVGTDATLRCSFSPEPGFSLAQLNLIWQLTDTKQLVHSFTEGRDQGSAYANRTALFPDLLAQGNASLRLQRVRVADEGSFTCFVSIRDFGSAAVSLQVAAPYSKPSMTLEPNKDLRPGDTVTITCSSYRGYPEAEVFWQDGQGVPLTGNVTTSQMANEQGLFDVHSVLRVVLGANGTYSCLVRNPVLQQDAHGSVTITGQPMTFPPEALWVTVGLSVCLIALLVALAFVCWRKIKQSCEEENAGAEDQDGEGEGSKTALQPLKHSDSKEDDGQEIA
Assay: Affinity determination by surface plasmon resonance (SPR) to 4Ig B7-H3
Conditions: 4Ig B7-H3

[1] = SPR KD—25° C., 25° C. flow cell temperature
[2] = SPR KD—37° C., 37° C. flow cell temperature

CSCC[C@H](NC(C)=O)C(=O)N[C@@H](Cc1ccc(O)cc1)C(=O)N[C@H]1CSSC[C@@H](C(=O)N[C@@H](Cc2c[nH]c3ccccc23)C(=O)N[C@@H](Cc2ccccc2)C(N)=O)NC(=O)[C@H](Cc2ccc(O)cc2)NC(=O)[C@H](C(C)C)NC(=O)[C@H](CC(=O)O)NC(=O)[C@H](Cc2ccc(O)cc2)NC(=O)[C@H](CCCCN)NC(=O)CNC(=O)[C@H](C(C)C)NC1=O [compound 1, Ac-M-Y-C-V-G-K-Y-D-V-Y-C-W-F-CONH2] (Ac-MYCVGKYDVYCWF-NH2; disulfide 3-11)
Kd [1]: 0.1 to 0.3 µM
Kd [2]: 0.1 to 0.3 µM

CCCC[C@H](NC(C)=O)C(=O)N[C@@H](Cc1ccc(O)cc1)C(=O)N[C@H]1CSSC[C@@H](C(=O)N[C@@H](Cc2c[nH]c3ccccc23)C(=O)N[C@@H](Cc2ccccc2)C(N)=O)NC(=O)[C@H](Cc2ccc(O)cc2)NC(=O)[C@H](C(C)C)NC(=O)[C@H](CC(=O)O)NC(=O)[C@H](Cc2ccc(C(=O)O)cc2)NC(=O)[C@H](CCCCN)NC(=O)CNC(=O)[C@H](C(C)C)NC1=O [compound 24, Ac-Nle-Y-C-V-G-K-4COOHPhe-D-V-Y-C-W-F-CONH2] (Ac-[Nle]YCVGK[Phe(4-COOH)]DVYCWF-NH2; disulfide 3-11)
Kd [2]: 0.01 to 0.1 µM

CCCC[C@H](NC(C)=O)C(=O)N[C@@H](Cc1ccc(O)cc1)C(=O)N[C@H]1CSSC[C@@H](C(=O)N[C@@H](Cc2c[nH]c3ccccc23)C(=O)N[C@@H](Cc2ccccc2)C(N)=O)NC(=O)[C@H](Cc2ccc(O)cc2)NC(=O)[C@H](C(C)C)NC(=O)[C@H](CC(=O)O)NC(=O)[C@H](Cc2ccc(O)cc2)NC(=O)[C@H](CCCCN)NC(=O)CN(C)C(=O)[C@H](C(C)C)NC1=O [compound 26, Ac-Nle-Y-C-V-Sar-K-Y-D-V-Y-C-W-F-CONH2] (Ac-[Nle]YCV[Sar]KYDVYCWF-NH2; disulfide 3-11)
Kd [1]: 0.01 to 0.1 µM
Kd [2]: 0.01 to 0.1 µM

CCCC[C@H](NC(C)=O)C(=O)N[C@@H](Cc1ccc(O)cc1)C(=O)N[C@H]1CSSC[C@@H](C(=O)N[C@@H](Cc2c[nH]c3ccccc23)C(=O)N[C@@H](Cc2ccccc2)C(=O)N[C@H](C(=O)N[C@H](CCCCNC(=O)CN2CCN(CC(=O)O)CCN(CC(=O)O)CCN(CC(=O)O)CC2)C(=O)O)[C@@H](C)O)NC(=O)[C@H](Cc2ccc(O)cc2)NC(=O)[C@H](C(C)C)NC(=O)[C@H](CC(=O)O)NC(=O)[C@H](Cc2ccc(O)cc2)NC(=O)[C@H](CCCCN)NC(=O)CNC(=O)[C@H](C(C)C)NC1=O [compound 28, Ac-Nle-Y-C-V-G-K-Y-D-V-Y-C-W-F-Thr-dLys(DOTA)-COOH] (Ac-[Nle]YCVGKYDVYCWFT[dK](DOTA)-OH; disulfide 3-11)
Kd [1]: 0.001 to 0.01 µM
Kd [2]: 0.001 to 0.01 µM

CCCC[C@H](NC(C)=O)C(=O)N[C@@H](Cc1ccc(O)cc1)C(=O)N[C@H]1CSSC[C@@H](C(=O)N[C@@H](Cc2c[nH]c3ccccc23)C(=O)N[C@@H](Cc2ccccc2)C(=O)N[C@@H](CCC(=O)N[C@H](CCCCNC(=O)CN2CCN(CC(=O)O)CCN(CC(=O)O)CCN(CC(=O)O)CC2)C(N)=O)C(=O)O)NC(=O)[C@H](Cc2ccc(O)cc2)NC(=O)[C@H](C(C)C)NC(=O)[C@H](CC(=O)O)NC(=O)[C@H](Cc2ccc(O)cc2)NC(=O)[C@H](CCCCN)NC(=O)CNC(=O)[C@H](C(C)C)NC1=O [compound 31, Ac-Nle-Y-C-V-G-K-Y-D-V-Y-C-W-F-gE-dLys(DOTA)-CONH2] (Ac-[Nle]YCVGKYDVYCWF[γGlu][dK](DOTA)-NH2; disulfide 3-11)
Kd [2]: 0.1 to 0.3 µM

CCCC[C@H](NC(C)=O)C(=O)N[C@@H](Cc1ccc(O)cc1)C(=O)N[C@H]1CSSC[C@@H](C(=O)N[C@@H](Cc2c[nH]c3ccccc23)C(=O)N[C@@H](Cc2ccccc2)C(=O)N[C@H](C(N)=O)[C@@H](C)O)NC(=O)[C@H](Cc2ccc(O)cc2)NC(=O)[C@H](C(C)C)NC(=O)[C@H](CC(=O)O)NC(=O)[C@H](Cc2ccc(O)cc2)NC(=O)[C@H](CCCCN)NC(=O)CNC(=O)[C@H](C(C)C)NC1=O [compound 32, Ac-Nle-Y-C-V-G-K-Y-D-V-Y-C-W-F-Thr-CONH2] (Ac-[Nle]YCVGKYDVYCWFT-NH2; disulfide 3-11)
Kd [1]: 0.001 to 0.01 µM
Kd [2]: 0.01 to 0.1 µM

CCCC[C@H](NC(C)=O)C(=O)N[C@@H](Cc1ccc(O)cc1)C(=O)N[C@H]1CSSC[C@@H](C(=O)N[C@@H](Cc2c[nH]c3ccccc23)C(=O)N[C@@H](Cc2ccccc2)C(=O)N[C@@H](CCC(=O)O)C(N)=O)NC(=O)[C@H](Cc2ccc(O)cc2)NC(=O)[C@H](C(C)C)NC(=O)[C@H](CC(=O)O)NC(=O)[C@H](Cc2ccc(O)cc2)NC(=O)[C@H](CCCCN)NC(=O)CNC(=O)[C@H](C(C)C)NC1=O [compound 34, Ac-Nle-Y-C-V-G-K-Y-D-V-Y-C-W-F-E-CONH2] (Ac-[Nle]YCVGKYDVYCWFE-NH2; disulfide 3-11)
Kd [1]: 0.001 to 0.01 µM
Kd [2]: 0.01 to 0.1 µM

CCCC[C@H](NC(C)=O)C(=O)N[C@@H](Cc1ccc(O)cc1)C(=O)N[C@H]1CSSC[C@@H](C(=O)N[C@@H](Cc2c[nH]c3ccccc23)C(=O)N[C@@H](Cc2ccccc2)C(=O)N[C@@H](CCC(N)=O)C(=O)O)NC(=O)[C@H](Cc2ccc(O)cc2)NC(=O)[C@H](C(C)C)NC(=O)[C@H](CC(=O)O)NC(=O)[C@H](Cc2ccc(O)cc2)NC(=O)[C@H](CCCCN)NC(=O)CNC(=O)[C@H](C(C)C)NC1=O [compound 35, Ac-Nle-Y-C-V-G-K-Y-D-V-Y-C-W-F-gE-CONH2]
Kd [1]: 0.01 to 0.1 µM

CCCC[C@H](NC(C)=O)C(=O)N[C@@H](Cc1ccc(O)cc1)C(=O)N[C@H]1CSSC[C@@H](C(=O)N[C@@H](Cc2c[nH]c3ccccc23)C(=O)N[C@@H](Cc2ccccc2)C(N)=O)NC(=O)[C@H](Cc2ccc(O)cc2)NC(=O)[C@H](C(C)C)NC(=O)[C@H](CC(=O)O)NC(=O)[C@H](Cc2ccc(O)cc2)NC(=O)[C@H](CCCCN)NC(=O)CN(CC)C(=O)[C@H](C(C)C)NC1=O [compound 52, Ac-Nle-Y-C-V-NetGly-K-Y-D-V-Y-C-W-F-CONH2] (Ac-[Nle]YCV[NEtG]KYDVYCWF-NH2; disulfide 3-11)
Kd [1]: 0.01 to 0.1 µM

CCCC[C@H](NC(C)=O)C(=O)N[C@@H](Cc1ccc(O)cc1)C(=O)N[C@H]1CSSC[C@@H](C(=O)N[C@@H](Cc2c[nH]c3ccccc23)C(=O)N[C@@H](Cc2ccccc2)C(N)=O)NC(=O)[C@H](Cc2ccc(O)cc2)NC(=O)[C@H](C(C)C)NC(=O)[C@H](CC(=O)O)NC(=O)[C@H](Cc2ccc(O)cc2)NC(=O)[C@H](CCCCN)NC(=O)CN(CCC(=O)O)C(=O)[C@H](C(C)C)NC1=O [compound 53, Ac-Nle-Y-C-V-N(CH2)2COOHGly-K-Y-D-V-Y-C-W-F-CONH2] (Ac-[Nle]YCV[N(CH2CH2COOH)Gly]KYDVYCWF-NH2; disulfide 3-11)
Kd [2]: 0.1 to 0.3 µM

CCCC[C@H](NC(C)=O)C(=O)N[C@@H](Cc1ccc(O)cc1)C(=O)N[C@H]1CSSC[C@@H](C(=O)N[C@@H](Cc2c[nH]c3ccccc23)C(=O)N[C@@H](Cc2ccccc2)C(=O)N[C@H](C(=O)N[C@H](CCCCNC(=O)CN2CCN(CC(=O)O)CCN(CC(=O)O)CCN(CC(=O)O)CC2)C(N)=O)[C@@H](C)O)NC(=O)[C@H](Cc2ccc(O)cc2)NC(=O)[C@H](C(C)C)NC(=O)[C@H](CC(=O)O)NC(=O)[C@H](Cc2ccc(O)cc2)NC(=O)[C@H](CCCCN)NC(=O)CNC(=O)[C@H](C2CCCCC2)NC1=O [compound 54, Ac-Nle-Y-C-ChG-G-K-Y-D-V-Y-C-W-F-Thr-dLys(DOTA)-CONH2] (Ac-[Nle]YC[Chg]GKYDVYCWFT[dK](DOTA)-NH2; disulfide 3-11)
Kd [1]: 0.01 to 0.1 µM
